In the SangsterLogP compilation:

| SMILES | logP |
| --- | --- |
| CC(C)Oc1cc(-n2nc(C(C)(C)C)oc2=O)c(Cl)cc1Cl | 4.09 |
| C=C1C(CCl)(CCl)C2(Cl)C(Cl)C(Cl)C1(Cl)C2(Cl)Cl (mixture of isomers) | 5.5 |
| COc1c(Cl)ccc(Cl)c1C(=O)O | 3.01 |
| ClC=C(c1ccc(Cl)cc1)c1ccc(Cl)cc1 | 5.27 |
| CCN(CC)C(=O)C(Cl)=C(C)OP(=O)(OC)OC | 1.34 |
| Brc1c(Br)c(Br)c(Br)c(Br)c1Br | 6.51 |
| CCOC(=O)C(C)N(C(=O)c1ccccc1)c1ccc(Cl)c(Cl)c1 (racemic) | 4.57 |
| COP(=S)(OC)Oc1ccc(S(=O)(=O)N(C)C)cc1 | 2.28 |
| COC(=O)C(C)N(C(=O)c1ccccc1)c1ccc(F)c(Cl)c1 (racemic) | 3.48 |
| Cc1nc(C)c(Cl)c(O)c1Cl | 0.5 |
| COc1cc(Cl)c(OC)cc1Cl | 3.46 |
| CC(C)OC(=O)[C@H](C)N(C(=O)c1ccccc1)c1ccc(F)c(Cl)c1 (racemic) | 4.41 |
| Clc1ccc(-c2cc(Cl)ccc2Cl)cc1 | 5.56 |
| O=C(O)COc1nc(Cl)c(Cl)cc1Cl | 2.09 |
